Like-named read-outs stand apart in the source and are kept apart here.

For series [1], the system named is cerebellar granular neurons (CGN). The experiment in a line: Neurite outgrowth assay in cultures of cerebellar granule neurons. The series is classed as cell-based, Wistar rats. The note with it: P7 CGN, peptides added after plating, 24 h. Here is the method:
Cerebellar granular neurons (CGN) were prepared from 3 or 7 postnatal (P) day Wistar rats (Charles River, Sulzfeld, Germany or Taconic, Ejby, Denmark). Cerebella were cleared of meninges and blood vessels, roughly homogenized by chopping, and trypsinized with trypsin from Sigma-Aldrich (Brøndby, Denmark). The neurons were washed in the presence of DNAse 1 and soybean trypsin inhibitor (Sigma-Aldrich), and cellular debris was pelleted by centrifugation before plating. For single-cell culture experiments, P7 CGNs were plated at a density of 10,000 cells/well onto uncoated eight-well Lab-Tek chamber slides (NUNC, Slangerup, Denmark) in Neurobasal-A medium supplemented with 0.4% (w/v) BSA. Peptides at various concentrations were added to the medium immediately after plating, and cells were maintained at 37° C. and 5% CO2 for 24 h. Cultures then were fixed, blocked and incubated with polyclonal rabbit antibody against rat GAP-43 (Chemicon, Temecula, Calif., USA) followed by incubation with secondary Alexa Fluor488 goat anti-rabbit antibody (Molecular Probes, Eugene, Oreg., USA) as previously described (Neiiendam et al., 2004). The immunostained cultures were all recorded by computer-assisted fluorescence microscopy using a Nikon Diaphot inverted microscope (Nikon, Japan) equipped with a Nikon Plane 20× objective. Images were captured with a charge-coupled device video camera (Grundig Electronics, Nurnberg, Germany) using the software package Prima developed at the Protein Laboratory (University of Copenhagen, Copenhagen, Denmark). The length of neuronal processes per cell was estimated using the software package Process Length developed at the Protein Laboratory (Ronn et al. 2000). For estimation of neurite outgrowth, at least 200±20 cells were processed for each group in each individual experiment.

The conditions of series [2]: subcutaneous administration, cited from earlier work.
The next series concerns malignancies. Particulars: in this dose and schedule (Whitehead et al., 1998); cited from earlier work.
Another series concerns psoriasis. The note with it: correcting imbalances in immune functions (Martin 2003); cited from earlier work.
For series [3] the following is noted: repeated daily dosing; cited from earlier work.

As to “AERLKTIMREKYSKS (Variant of fragment of interleukin-4) [SEQ ID NO: 4]”, the “neuritogenic response from primary neurons” value in series [1] is recorded as “induce a neuritogenic response”.
Still for that read-out and setting: the result for “AITLQEIIKTLNSA (Variant of fragment of interleukin-4) [SEQ ID NO: 2]” reads “induce a neuritogenic response”.
The same measure, in the same setting: in the case of “AQFHRHKQLIRFLKRA (Variant of fragment of interleukin-4) [SEQ ID NO: 1]” it was “induce a neuritogenic response”; in that of “ARFLKRLDRNLWGG (Variant of fragment of interleukin-4) [SEQ ID NO: 3]”, “induce a neuritogenic response”.
Consider “rhulL-4: Escherichia coli-derived recombinant human interleukin-4”, for which the safety and tolerability result was “safe and well tolerated” in series [2] (as high as 10 μg/kg administered 3 times/week); “safe and well tolerated” in series [2] (doses as high as 5 μg/kg/day). In the series on malignancies, the antitumor activity entry was “only low antitumor activity”. In addition, the “benefit in patients with psoriasis” value in the series with psoriasis was “beneficial”. In addition, the adverse effects entry in series [3] is reported as “a number of adverse effects”.

(Values after US8546321B2, “IL-4-derived peptides for modulation of the chronic inflammatory response and treatment of autoimmune diseases” (Kobenhavns Universitet, priority 2008, dated 2013).)
